Results reported in ChEMBL document CHEMBL3045460, “Antifungal, mosquito deterrent, and larvicidal activity of N-(benzylidene)-3-cyclohexylpropionic acid hydrazide derivatives” (2013).
Converted amounts (≈) assume the structure as drawn. The source made the active and inactive calls. No cut-off for these calls is given here.

Assays:
Diaporthe ampelina = test: Antifungal activity against Diaporthe ampelina assessed as growth inhibition at 30 uM after 144 hr by 96-well microdilution broth assay; assay type: functional; conditions: read-out: GI
Fusarium oxysporum = test: Antifungal activity against Fusarium oxysporum assessed as growth inhibition at 0.3 to 30 uM after 48 to 72 hr by 96-well microdilution broth assay; assay type: functional, organism-based
Phomopsis obscurans = test: Antifungal activity against Phomopsis obscurans assessed as growth inhibition at 30 uM after 144 hr by 96-well microdilution broth assay; assay type: functional; conditions: Paraphomopsis obscurans, read-out: GI
Botrytis cinerea = test: Antifungal activity against Botryotinia fuckeliana assessed as growth inhibition at 0.3 to 30 uM after 48 to 72 hr by 96-well microdilution broth assay; assay type: functional, organism-based
[1] = test system: Colletotrichum gloeosporioides; test: Antifungal activity against Colletotrichum gloeosporioides assessed as growth inhibition at 0.3 to 30 uM after 48 to 72 hr by 96-well microdilution broth assay; assay type: functional, organism-based
Colletotrichum fragariae = test: Antifungal activity against Colletotrichum fragariae assessed as growth inhibition at 0.3 to 30 uM after 48 to 72 hr by 96-well microdilution broth assay; assay type: functional, organism-based
Colletotrichum acutatum = test: Antifungal activity against Colletotrichum acutatum assessed as growth inhibition at 0.3 to 30 uM after 48 to 72 hr by 96-well microdilution broth assay; assay type: functional, organism-based
Aedes aegypti [2] = test: Insecticidal activity against first-instar larval stage of Aedes aegypti assessed as mortality after 48 hr; assay type: functional
Aedes aegypti [3] = test: Insecticidal activity against first-instar larval stage of Aedes aegypti assessed as mortality at 1.6 ppm after 48 hr; assay type: functional
Aedes aegypti [4] = test: Insecticidal activity against first-instar larval stage of Aedes aegypti assessed as mortality after 24 hr; assay type: functional
Aedes aegypti [5] = test: Insecticidal activity against first-instar larval stage of Aedes aegypti assessed as mortality at 0.8 ppm after 48 hr; assay type: functional
Aedes aegypti [6] = test: Insecticidal activity against first-instar larval stage of Aedes aegypti assessed as mortality at 1.6 ppm after 24 hr; assay type: functional, organism-based
Aedes aegypti [7] = test: Insecticidal activity against first-instar larval stage of Aedes aegypti assessed as mortality at 25 ppm after 24 hr; assay type: functional
Aedes aegypti [8] = test: Insecticidal activity against first-instar larval stage of Aedes aegypti assessed as mortality at 0.8 ppm after 24 hr; assay type: functional, organism-based
Aedes aegypti [9] = test: Insecticidal activity against first-instar larval stage of Aedes aegypti assessed as mortality at 50 ppm after 24 hr; assay type: functional
Aedes aegypti [10] = test: Insecticidal activity against first-instar larval stage of Aedes aegypti assessed as mortality at 100 ppm after 24 hr; assay type: functional
Aedes aegypti [11] = test: Insecticidal activity against female adult Aedes aegypti fed on CPDA-1+ATP assessed as biting deterrence activity at 25 nmol/cm2 by six-celled K & D module bioassay; assay type: functional

Row | SMILES | growth inhibition (GI) (Fusarium oxysporum) | inhibition of growth at 30 µM (Phomopsis obscurans) | growth inhibition (GI) (Botrytis cinerea) | growth inhibition (GI) [1] | growth inhibition (GI) (Colletotrichum fragariae) | growth inhibition (GI) (Colletotrichum acutatum) | Activity (Aedes aegypti [11]) | further results
1 | O=C(CCC1CCCCC1)N/N=C\c1ccc(F)cc1 | inactive | 86.9% | inactive | inactive | inactive | inactive |  | inhibition of growth at 30 µM (Diaporthe ampelina): 83.6%
2 | CC(C)c1ccc(/C=N\NC(=O)CCC2CCCCC2)cc1 | inactive | 99.5% | inactive | inactive | inactive | inactive | 22% | LD90 (Aedes aegypti [2]): 19.1 ppm; LC50 (Aedes aegypti [2]; Aedes aegypti, Instar larval stage, 48 h, read-out: LD50 (the source's name)): 4.35 µg/mL (≈ 14.5 µM); mortality at 1.6 ppm (Aedes aegypti [3]): 14.7%; LD90 (Aedes aegypti [4]): 297.8 ppm; LC50 (Aedes aegypti [4]; Aedes aegypti, Instar larval stage, 24 h, read-out: LD50 (the source's name)): 57.4 µg/mL (≈ 191 µM); mortality at 0.8 ppm (Aedes aegypti [5]): 4%; Activity (Aedes aegypti [6]): inactive; mortality at 25 ppm (Aedes aegypti [7]): 30%; Activity (Aedes aegypti [8]): inactive; mortality at 50 ppm (Aedes aegypti [9]): 70%; mortality at 100 ppm (Aedes aegypti [10]): 80%; inhibition of growth at 30 µM (Diaporthe ampelina): 94%
3 | O=C(CCC1CCCCC1)N/N=C\c1ccc(Cl)cc1 | inactive |  | inactive | inactive | inactive | inactive | >50% | 
4 | COc1ccc(/C=N\NC(=O)CCC2CCCCC2)cc1 | inactive | 74.1% | inactive | inactive | inactive | inactive | 22% | 
5 | O=C(CCC1CCCCC1)N/N=C\c1ccc(Br)cc1 | inactive |  | inactive | inactive | inactive | inactive | >50% | 
6 | CN(C)c1ccc(/C=N\NC(=O)CCC2CCCCC2)cc1 | inactive |  | inactive | inactive | inactive | inactive | 22% | 
7 | O=C(CCC1CCCCC1)N/N=C\c1ccc([N+](=O)[O-])cc1 | inactive |  | inactive | inactive | inactive | inactive | 22% | 
8 | O=C1C2CC=CCC2C(=O)N1SC(Cl)(Cl)Cl (centres undefined) [CAPTAN] |  | 100% |  |  |  |  |  | inhibition of growth at 30 µM (Diaporthe ampelina): 99.2%
9 | Cc1ccc(/C=N\NC(=O)CCC2CCCCC2)cc1 | inactive | 86.7% | inactive | inactive | inactive | inactive | 22% | 
10 | O=C(CCC1CCCCC1)N/N=C\c1ccc(O)cc1 | inactive |  | inactive | inactive | inactive | inactive | 22% | 
11 | O=C(CCC1CCCCC1)N/N=C\c1ccccc1 | inactive |  | inactive | inactive | inactive | inactive | >50% | 
12 | CCN(CC)C(=O)c1cccc(C)c1 [DIETHYLTOLUAMIDE] |  |  |  |  |  |  | 80% | 
